Measurements from patent publication US9271967B2, “1,2,4-triazolo[4,3-a]pyridine derivatives and their use as positive allosteric modulators of mGluR2 receptors” (Janssen Pharmaceuticals, Inc., priority 2010, dated 2016).

Legend:
[1] = target: T1, human mGluR2 receptor (Homo sapiens, UniProt Q14416); experiment: [35S]GTPγS binding assay (PAM assay); type: biochemical; conditions: in presence of glutamate at EC20; for GTPγS-hmGluR2 PAM Emax / Emax: maximal % effect relative to the control glutamate response; for EC50: membranes of CHO cells transfected with human mGluR2, -log EC50 in M, read-out: GTPγS-hmGluR2 PAM pEC50 (converted); for Emax: read-out: GTPγS-hmGluR2 PAM Emax
T1 construct: expressed in transfected cells; host or cells: CHO cells
Method: The [^35S]GTPγS binding assay is a functional membrane-based assay used to study G-protein coupled receptor (GPCR) function whereby incorporation of a non-hydrolysable form of GTP, [^35S]GTPγS (guanosine 5′-triphosphate, labelled with […] ^35S), is measured. The G-protein α subunit catalyzes the exchange of guanosine 5′-diphosphate (GDP) by guanosine triphosphate (GTP) and on activation of the GPCR by an agonist, [^35S]GTPγS, becomes incorporated and cannot be cleaved to continue the exchange cycle (Harper (1998) Current Protocols in Pharmacology 2.6.1-10, John Wiley & Sons, Inc.). […] Here we describe the use of the [^35S]GTPγS binding assay using membranes from cells transfected with the human mGluR2 receptor and adapted from Schaffhauser et al. ((2003) Molecular Pharmacology 4:798-810) for the detection of the positive allosteric modulation (PAM) properties of the compounds of this invention.
CHO-cells were cultured to pre-confluence and stimulated with 5 mM butyrate for 24 h. Cells were then collected by scraping in PBS and cell suspension was centrifuged (10 min at 4000 RPM in benchtop centrifuge). Supernatant was discarded and pellet gently resuspended in 50 mM Tris-HCl, pH 7.4 by mixing with a vortex and pipetting up and down. The suspension was centrifuged at 16,000 RPM (Sorvall RC-5C plus rotor SS-34) for 10 minutes and the supernatant discarded. The pellet was homogenized in 5 mM Tris-HCl, pH 7.4 using an ultra-turrax homogenizer and centrifuged again (18,000 RPM, 20 min, 4° C.). The final pellet was resuspended in 50 mM Tris-HCl, pH 7.4 and stored at −80° C. in appropriate aliquots before use. Protein concentration was determined by the Bradford method (Bio-Rad, USA) with bovine serum albumin as standard.
Measurement of mGluR2 positive allosteric modulatory activity of test compounds was performed as follows. Test compounds and glutamate were diluted in assay buffer containing 10 mM HEPES acid, 10 mM HEPES salt, pH 7.4, 100 mM NaCl, 3 mM MgCl2 and 10 μM GDP. Human mGlu2 receptor-containing membranes were thawed on ice and diluted in assay buffer supplemented with 14 μg/ml saponin. Membranes were pre-incubated with compound alone or together with a predefined (˜EC20) concentration of glutamate (PAM assay) for 30 min at 30° C. After addition of [^35S]GTPγS (f.c. 0.1 nM), assay mixtures were shaken briefly and further incubated to allow [^35S]GTPγS incorporation on activation (30 minutes, 30° C.). Final assay mixtures contained 7 μg of membrane protein in 10 mM HEPES acid, 10 mM HEPES salt, pH 7.4, 100 mM NaCl, 3 mM MgCl2, 10 μM GDP and 10 μg/ml saponin. Total reaction volume was 200 μl. Reactions were terminated by rapid filtration through Unifilter-96 GF/B plates (Perkin Elmer, Mass., USA) using a 96-well filtermate universal harvester. Filters were washed 6 times with ice-cold 10 mM NaH2PO4/10 mM Na2HPO4, pH 7.4. Filters were then air-dried, and 40 μl of liquid scintillation cocktail (Microscint-O) was added to each well. Membrane-bound radioactivity was counted in a Microplate Scintillation and Luminescence Counter from Perkin Elmer.
The concentration-response curves of representative compounds of the present invention—obtained in the presence of EC20 of mGluR2 agonist glutamate to determine positive allosteric modulation (PAM)—were generated using the Lexis software interface (developed at J&J). Data were calculated as % of the control glutamate response, defined as the maximal response that is generated upon addition of glutamate alone. Sigmoid concentration-response curves plotting these percentages versus the log concentration of the test compound were analyzed using non-linear regression analysis. The concentration producing half-maximal effect is then calculated as EC50. The pEC50 values below were calculated as the −log EC50, when the EC50 is expressed in M. Emax is defined as relative maximal effect (i.e. maximal % effect relative to the control glutamate response).

T1 sequence (Q14416 19-872): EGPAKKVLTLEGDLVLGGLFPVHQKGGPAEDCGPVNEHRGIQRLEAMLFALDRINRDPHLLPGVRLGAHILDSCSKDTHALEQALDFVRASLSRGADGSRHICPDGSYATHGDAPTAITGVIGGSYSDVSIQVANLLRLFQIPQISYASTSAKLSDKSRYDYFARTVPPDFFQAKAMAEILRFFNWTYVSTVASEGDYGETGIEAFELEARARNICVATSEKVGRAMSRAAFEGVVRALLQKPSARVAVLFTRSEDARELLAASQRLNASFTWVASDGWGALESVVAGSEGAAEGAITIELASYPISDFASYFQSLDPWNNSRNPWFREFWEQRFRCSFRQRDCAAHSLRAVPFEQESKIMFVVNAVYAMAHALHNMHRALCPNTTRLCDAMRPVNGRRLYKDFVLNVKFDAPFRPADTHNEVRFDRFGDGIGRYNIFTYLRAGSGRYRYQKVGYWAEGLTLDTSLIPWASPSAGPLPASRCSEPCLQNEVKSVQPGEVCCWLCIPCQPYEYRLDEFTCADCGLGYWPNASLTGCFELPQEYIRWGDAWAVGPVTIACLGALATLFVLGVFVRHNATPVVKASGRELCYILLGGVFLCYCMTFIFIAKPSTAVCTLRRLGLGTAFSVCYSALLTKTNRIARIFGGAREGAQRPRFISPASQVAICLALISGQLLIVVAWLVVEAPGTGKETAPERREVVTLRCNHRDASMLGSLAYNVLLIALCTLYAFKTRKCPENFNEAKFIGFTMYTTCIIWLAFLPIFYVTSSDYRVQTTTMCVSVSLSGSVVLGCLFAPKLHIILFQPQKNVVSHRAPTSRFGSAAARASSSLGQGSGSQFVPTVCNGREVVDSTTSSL

Question: Which “GTPγS-hmGluR2 PAM Emax” value ([1]; listed as 28a) does the source give for FC(F)(F)c1c(CNC2CCOc3ccccc32)ccn2c(CC3CC3)nnc12 (single isomer, unassigned) [Co. no. 28a, (4*R)—N-{[3-(Cyclopropylmethyl)-8-(trifluoromethyl) [1,2,4]triazolo[4,3-a]pyridin-7-yl]methyl}-3,4-dihydro-2H-chromen-4-amine] here?
Answer: 257%

Question: What about the EC50 [1] of the same compound?
Answer: 794 nM

Question: Which “GTPγS-hmGluR2 PAM Emax” value ([1]; listed as 28b) does the source give for FC(F)(F)c1c(CNC2CCOc3ccccc32)ccn2c(CC3CC3)nnc12 (single isomer, unassigned) [Co. no. 28b, (4*S)—N-{[3-(Cyclopropylmethyl)-8-(trifluoromethyl) [1,2,4]triazolo[4,3-a]pyridin-7-yl]methyl}-3,4-dihydro-2H-chromen-4-amine] here?
Answer: 285%

Question: And the EC50 [1]?
Answer: 575 nM

Question: With Fc1ccc(N2CCC(NCc3ccn4c(CC5CC5)nnc4c3C(F)(F)F)CC2)c(F)c1 [Co. no. 2, 3-(Cyclopropylmethyl)-N-[1-(2,4-difluorophenyl)-4-piperidinyl]-8-(trifluoromethyl)-1,2,4-triazolo[4,3-a]pyridine-7-methanamine] as the compound, how does the Emax [1] read?
Answer: 321%

Question: What about the EC50 [1] of the same compound?
Answer: 617 nM

Question: For FC(F)(F)c1c(CN[C@H]2CC[C@H](c3ccccc3)CC2)ccn2c(CC3CC3)nnc12 [Co. no. 3, 3-(Cyclopropylmethyl)-N-(trans-4-phenylcyclohexyl)-8-(trifluoromethyl)-1,2,4-triazolo[4,3-a]pyridine-7-methanamine], which Emax [1] is on record?
Answer: 235%

Question: And the EC50 [1]?
Answer: 234 nM

Question: What about the melting point of the same compound?
Answer: 157.4 °C

Question: What does the source list for CCc1nnc2c(C(F)(F)F)c(CN[C@H]3CC[C@H](c4ccccc4)CC3)ccn12 [Co. no. 4, 3-Ethyl-N-(trans-4-phenylcyclohexyl)-8-(trifluoromethyl)-1,2,4-triazolo[4,3-a]-pyridine-7-methanamine]?
Answer: Emax [1]: 197%; EC50 [1]: 1200 nM

Question: Which Emax [1] does the source give for FC(F)(F)c1c(CNC2Cc3ccccc3C2)ccn2c(CC3CC3)nnc12 [Co. no. 6, 3-(Cyclopropylmethyl)-N-(2,3-dihydro-1H-inden-2-yl)-8-(trifluoromethyl)-1,2,4-triazolo[4,3-a]pyridine-7-methanamine] here?
Answer: 227%

Question: What about the EC50 [1] of the same compound?
Answer: 794 nM

Question: For FC(F)(F)c1c(CN[C@H]2CC[C@@H](c3ccccc3)CC2)ccn2c(CC3CC3)nnc12 [Co. no. 7, 3-(Cyclopropylmethyl)-N-(cis-4-phenylcyclohexyl)-8-(trifluoromethyl)-1,2,4-triazolo-[4,3-a]pyridine-7-methanamine], which Emax [1] is on record?
Answer: 263%

Question: And the EC50 [1]?
Answer: 42.7 nM

Question: Which results are given for CCc1nnc2c(C(F)(F)F)c(CN[C@H]3CC[C@@H](c4ccccc4)CC3)ccn12 [Co. no. 8, 3-Ethyl-N-(cis-4-phenylcyclohexyl)-8-(trifluoromethyl)-1,2,4-triazolo[4,3-a]pyridine-7-methanamine]?
Answer: Emax [1]: 228%; EC50 [1]: 324 nM

Question: For CCc1nnc2c(C(F)(F)F)c(CN[C@H]3CC[C@@H](c4ccc(F)cc4F)CC3)ccn12 [Co. no. 9, N-[Cis-4-(2,4-difluorophenyl)cyclohexyl]-3-ethyl-8-(trifluoromethyl)-1,2,4-triazolo[4,3-a]pyridine-7-methanamine], which Emax [1] is on record?
Answer: 209%

Question: And the EC50 [1]?
Answer: 209 nM

Question: Which Emax [1] does the source give for CCOCc1nnc2c(C(F)(F)F)c(CN[C@H]3CC[C@@H](c4ccccc4)CC3)ccn12 [Co. no. 10, 3-(Ethoxymethyl)-N-(cis-4-phenylcyclohexyl)-8-(trifluoromethyl)-1,2,4-triazolo-[4,3-a]pyridine-7-methanamine] here?
Answer: 242%

Question: And the EC50 [1]?
Answer: 170 nM

Question: With CCOCc1nnc2c(C(F)(F)F)c(CN[C@H]3CC[C@H](c4ccccc4)CC3)ccn12 [Co. no. 11, 3-(Ethoxymethyl)-N-(trans-4-phenylcyclohexyl)-8-(trifluoromethyl)-1,2,4-triazolo-[4,3-a]pyridine-7-methanamine] as the compound, how does the Emax [1] read?
Answer: 278%

Question: For Clc1c(CN[C@H]2CC[C@@H](c3ccccc3)CC2)ccn2c(CC3CC3)nnc12 [Co. no. 12, 8-Chloro-3-(cyclopropylmethyl)-N-(cis-4-phenylcyclohexyl)-1,2,4-triazolo-[4,3-a]pyridine-7-methanamine], which Emax [1] is on record?
Answer: 257%

Question: And the EC50 [1]?
Answer: 589 nM

Question: For Clc1c(CN[C@H]2CC[C@H](c3ccccc3)CC2)ccn2c(CC3CC3)nnc12 [Co. no. 13, 8-Chloro-3-(cyclopropylmethyl)-N-(trans-4-phenylcyclohexyl)-1,2,4-triazolo-[4,3-a]pyridine-7-methanamine], which Emax [1] is on record?
Answer: 243%

Question: With FC(F)(F)c1c(CNC2CC2c2ccccc2)ccn2c(CC3CC3)nnc12 (stereo not drawn) [Co. no. 27, Trans-N-{[3-(Cyclopropylmethyl)-8-(trifluoromethyl)[1,2,4]triazolo[4,3-a]pyridin-7-yl]methyl}-2-phenylcyclopropanamine] as the compound, how does the Emax [1] read?
Answer: 267%

Question: And the EC50 [1]?
Answer: 871 nM

Question: What does the source list for FC(F)(F)c1c(CN[C@H]2CCO[C@H](c3ccccc3)C2)ccn2c(CC3CC3)nnc12 [Co. no. 29, (2S,4S)—N-{[3-(Cyclopropylmethyl)-8-(trifluoromethyl) [1,2,4]triazolo[4,3-a]pyridin-7-yl]methyl}-2-phenyltetrahydro-2H-pyran-4-amine]?
Answer: Emax [1]: 209%; melting point: 95.8 °C

Question: Which Emax [1] does the source give for FC(F)(F)c1c(CN[C@@H]2CCO[C@@H](c3ccccc3)C2)ccn2c(CC3CC3)nnc12 [Co. no. 30, (2R,4R)—N-{[3-(Cyclopropylmethyl)-8-(trifluoromethyl)[1,2,4]triazolo[4,3-a]pyridin-7-yl]methyl}-2-phenyltetrahydro-2H-pyran-4-amine] here?
Answer: 239%

Question: What about the EC50 [1] of the same compound?
Answer: 1200 nM

Question: And the melting point?
Answer: 139.6 °C

Question: For FC(F)(F)c1c(CNC2COCC2c2ccccc2)ccn2c(CC3CC3)nnc12 (stereo not drawn) [Co. no. 31, Cis-N-{[3-(Cyclopropylmethyl)-8-(trifluoromethyl) [1,2,4]triazolo[4,3-a]pyridin-7-yl]methyl}-4-phenyltetrahydrofuran-3-amine], which Emax [1] is on record?
Answer: 201%
